Consider 1 molecule from patent US11813070B2, “Apparatus for measuring pressure changes in stomach” (VIPUN Medical NV, priority 2017, dated 2023).

The test system of assay [1] is healthy subjects. Briefly: Gastric motility measured as intragastric balloon pressure (motility index, MI) after codeine or placebo. Type of assay: in vivo, human. The following applies: 60 mg codeine as syrup, single dose, n=6. An excerpt:
The example explored the potential of a balloon with the optimal balloon size as determined in examples 1 and the optimal balloon material characteristics as determined in examples 2. More specifically the aim was 3-fold: • To investigate whether the nasogastric balloon catheter can be used to detect (codeine-induced) decreased gastric motility. • To investigate the correlation between gastric motility and gastric emptying changes after codeine treatment. • To investigate whether the presence of an inflated intragastric balloon influences gastric motility and emptying.
6 healthy subjects were recruited for this study. […] Subjects were asked to come to the clinic after at least 6 hours fasting, none of the subjects were taking any medication apart from contraception pills. […]
The 20 ml balloon experiments served as a control for the 200 ml balloon experiments since the effect of a 200 ml balloon on gastric motility and emptying is unknown. Gastric motility was assessed with a double lumen balloon catheter as described below by measuring the pressure in the balloon with an external pressure sensor. […]
Customized computer software (Pharmlab 5.0; AstraZeneca R&D, Mölndal, Sweden) was used to record pressure as mmHg at 1 Hz. […] The baseline was calculated as follows: […]

Assay [2] deals with healthy subjects. Briefly: Gastric emptying rate by 13C-octanoic acid breath test (GET½) after codeine or placebo. In kind it is in vivo, human. The note with it: inflated balloon (200 ml), 60 mg codeine as syrup, single dose, n=6. On the procedure: The study was designed as a randomized crossover study with 4 groups was (see schematic 14): • 20 ml balloon—placebo • 20 ml balloon—codeine • 200 ml balloon—placebo • 200 ml balloon—codeine
The volunteers received either placebo or codeine as a syrup. After positioning the balloon catheter the balloon was filled with 50 ml for 10 minutes, hereafter the balloon was inflated to 200 ml of deflated to 20 ml depending on the treatment arm. After this and in total 20 minutes after syrup ingestion 150 ml of a nutrient drink (Nutridrink, Nutricia (NL)) was directly infused into the stomach at a constant speed of 75 ml/hour. […]
Gastric emptying rate was measured using the ^13C-octanoic acid breath test (11). ^13C-labeled octanoic acid was solved in the nutrient drink (0.5 mg/ml). Emptying of the stomach was assessed by analysis of the exhaled ^13CO2, after oxidation of octanoic acid in the liver. […]
2) Gastric emptying (breath test). The ratio of ^13CO2 to ^12CO2 (molar mass 45 and 44 gr/mol) in the breath samples collected was measured by isotope ratio mass spectrometry (IRMS; ABCA, Sercon, Crewe, UK). As described before (12) a ^13C recovery rate per hour (% dosage per hour) was calculated per sample taking into account that the total dosage ^13C was administered over 2 hours. […]

“Also recorded” adds a separate entry of the source.

As to `COc1ccc2c3c1O[C@H]1[C@@H](O)C=C[C@H]4[C@@H](C2)N(C)CC[C@@]341` [codeine], the “gastric contractility expressed as motility index (MI), codeine vs. placebo” value in the assay with healthy subjects [1] (deflated balloon (20 ml)) is listed as “did not significantly affect MI; also recorded: no effect of treatment; also recorded: No effect of codeine on motility could be detected”; in the assay with healthy subjects [1] (inflated balloon (200 ml)), “significant effect on MI (P<0.01); also recorded: motility was always decreased; also recorded: significant treatment effect (P<0.01); also recorded: decreased MI; also recorded: significantly decreased gastric motility”. The “gastric half emptying time (GET½), codeine vs. placebo” value with healthy subjects [2] is given as “GET½ increased; also recorded: significant treatment effect (P<0.05); also recorded: increased GET½; also recorded: delayed gastric emptying”; in the assay with healthy subjects [2] (listed as Codeine) it was “delayed gastric emptying”.
